Data reported in patent US12312332B2 (Merck Sharp & Dohme LLC., priority 2019, dated 2025).

Target: T1, human OX2R (Homo sapiens, UniProt O43614)
T1 construct: expressed in transfected cells; host or cells: Chinese hamster ovary (CHO) cells, kept under G418 selection
T1 sequence (O43614 1-444): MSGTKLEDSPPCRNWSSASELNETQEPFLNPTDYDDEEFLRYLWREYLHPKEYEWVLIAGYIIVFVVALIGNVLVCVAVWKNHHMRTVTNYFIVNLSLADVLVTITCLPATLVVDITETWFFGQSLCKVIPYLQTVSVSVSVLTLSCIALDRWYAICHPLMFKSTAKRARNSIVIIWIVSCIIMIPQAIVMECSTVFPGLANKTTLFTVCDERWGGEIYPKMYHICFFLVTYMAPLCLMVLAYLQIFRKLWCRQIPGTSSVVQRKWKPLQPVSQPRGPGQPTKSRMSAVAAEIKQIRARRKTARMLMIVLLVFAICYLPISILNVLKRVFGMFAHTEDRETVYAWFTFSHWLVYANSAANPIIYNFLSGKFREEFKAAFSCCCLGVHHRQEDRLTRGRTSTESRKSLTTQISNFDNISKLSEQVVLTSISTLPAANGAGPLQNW
Assay: IPOne (IP-One) orexin receptor agonist assay in CHO cells expressing human OX2R
Assay type: cell-based
Details: for EC50: CHO cells expressing human OX2R, IP-One detection, 2 hours incubation, four parameter logistic fit, read-out: OX2R Potency, EC50; for % max agonist effect (Emax): human OX2R, percentage of sample raw value/mean max effect (reference compound at 1 uM with 100% activity)
Description: The utility of the compounds in accordance with the present invention as orexin receptor OX1R and/or OX2R agonists may be readily determined without undue experimentation by methodology well known in the art. Both the OX1R and/or OX2R G-coupled protein receptors (GPCRs) couple through the Gaq signaling pathway, which ultimately promotes calcium mobilization via inositol triphosphate (IP3) production. […] The utility of the compounds in accordance with the present invention as orexin receptor OX1R and/or OX2R agonists may be determined utilizing this assay.
In a typical experiment, the OX1 and OX2 receptor agonist activity is determined in accordance with the following general experimental method. Chinese hamster ovary (CHO) cells expressing human OX1R and/or the human OX2R were grown in Iscove's modified DMEM containing glutaMAX™, 1% G418, 100 U/mL penicillin, 100 μg/mL streptomycin and 10% heat-inactivated qualified fetal bovine serum (FBS). […] During this incubation, IP-one detection reagents were prepared (38:1:1 lysis buffer:D2:AB-cryptate reagents).
For each compound, data were fit to a four parameter logistic fit (ActivityBase software) and the EC50 was reported as the inflection point of the resulting curve. Percent effect for each test compound was determined as the percentage of sample raw value/mean max effect, where the mean max effect was derived from the mean raw value of 32 control wells per assay plate (using Orexin A (cat #003-30) at 1 μM for human OX1R and a reference compound at 1 uM with 100% activity previously established by comparison to Orexin A for human OX2R). The intrinsic orexin receptor agonist activity of a compound which may be used in the present invention may be determined by these assays.

Row | SMILES | EC50 | % max agonist effect (Emax)
1 | CS(=O)(=O)N[C@H]1CCN(c2cnccc2OCc2ccccc2)[C@H]1CO[C@H]1CC[C@@H](c2ccccc2)CC1 [Example 123, N-((2R,3S)-1-(4-(benzyloxy)pyridin-3-yl)-2-((((CIS)-4-phenylcyclohexyl)oxy)methyl)pyrrolidin-3-yl)methanesulfonamide] | 755 nM | 97.6%
2 | Cc1ccncc1N1CC[C@H](NS(C)(=O)=O)[C@@H]1CO[C@H]1CC[C@@H](c2ccccc2)CC1 [Example 81, N-((2R,3S)-1-(4-Methylpyridin-3-yl)-2-((((CIS)-4-phenylcyclohexyl)oxy)methyl)pyrrolidin-3-yl)methanesulfonamide] | 24.5 nM | 100.9%
3 | CS(=O)(=O)N[C@H]1CCN(c2ccc(CO)nc2)[C@H]1CO[C@H]1CC[C@@H](c2ccccc2)CC1 [Example 71, N-((2R,3S)-1-(6-(hydroxymethyl)pyridin-3-yl)-2-((((CIS)-4-phenylcyclohexyl)oxy)methyl)pyrrolidin-3-yl)methanesulfonamide] | 23.8 nM | 101.1%
4 | CS(=O)(=O)N[C@H]1CCN(c2cc(O)ncn2)[C@H]1CO[C@H]1CC[C@@H](c2ccccc2)CC1 [Example 150, N-((2R,3S)-1-(6-hydroxypyrimidin-4-yl)-2-((((CIS)-4-phenylcyclohexyl)oxy)methyl)pyrrolidin-3-yl)methanesulfonamide] | 397 nM | 99.4%
5 | CS(=O)(=O)N[C@H]1CCN(c2ccns2)[C@H]1CO[C@H]1CC[C@@H](c2ccccc2)CC1 [Example 18, N-((2R,3S)-1-(isothiazol-5-yl)-2-((((CIS)-4-phenylcyclohexyl)oxy)methyl)pyrrolidin-3-yl)methanesulfonamide] | 2910 nM | 87.4%
6 | CS(=O)(=O)N[C@H]1CCN(c2ccc(C(F)F)nc2)[C@H]1CO[C@H]1CC[C@@H](c2ccccc2)CC1 [Example 24, N-((2R,3S)-1-(6-(difluoromethyl)pyridin-3-yl)-2-((((CIS)-4-phenylcyclohexyl)-oxy)methyl)pyrrolidin-3-yl)methanesulfonamide] | 50 nM | 100.7%
7 | COc1cncc(N2CC[C@H](NS(C)(=O)=O)[C@@H]2CO[C@H]2CC[C@@H](c3ccccc3)CC2)c1C [Example 128, N-((2R,3S)-1-(5-methoxy-4-methylpyridin-3-yl)-2-((((CIS)-4-phenylcyclohexyl)oxy)methyl)pyrrolidin-3-yl)methanesulfonamide] | > 10000 nM | 50.4%
8 | CS(=O)(=O)N[C@H]1CCN(c2cc(OC(F)F)c(F)cn2)[C@H]1CO[C@H]1CC[C@@H](c2ccccc2)CC1 [Example 140, N-((2R,3S)-1-(4-(difluoromethoxy)-5-fluoropyridin-2-yl)-2-((((CIS)-4-phenylcyclohexyl)oxy)methyl)pyrrolidin-3-yl)methanesulfonamide] | 299 nM | 98.8%
9 | COc1cncc(N2CC[C@H](NS(C)(=O)=O)[C@@H]2CO[C@H]2CC[C@@H](c3ccccc3)CC2)c1 [Example 64, N-((2R,3S)-1-(5-methoxypyridin-3-yl)-2-((((CIS)-4-phenylcyclohexyl)oxy)methyl)pyrrolidin-3-yl)methanesulfonamide] | 46.3 nM | 101.1%
10 | CS(=O)(=O)N[C@H]1CCN(c2cncc(C#N)c2)[C@H]1CO[C@H]1CC[C@@H](c2ccccc2)CC1 [Example 133, N-((2R,3S)-1-(5-cyanopyridin-3-yl)-2-((((CIS)-4-phenylcyclohexyl)oxy)methyl)pyrrolidin-3-yl)methanesulfonamide] | 993 nM | 100.3%
11 | CS(=O)(=O)N[C@H]1CCN(c2cncc(OC(F)F)c2)[C@H]1CO[C@H]1CC[C@@H](c2ccccc2)CC1 [Example 52, N-((2R,3S)-1-(5-(difluoromethoxy)pyridin-3-yl)-2-((((CIS)-4-phenylcyclohexyl)oxy)methyl)pyrrolidin-3-yl)methanesulfonamide] | 649 nM | 99.2%
12 | CS(=O)(=O)N[C@H]1CCN(c2ncccc2O)[C@H]1CO[C@H]1CC[C@@H](c2ccccc2)CC1 [Example 137, N-((2R,3S)-1-(3-hydroxypyridin-2-yl)-2-((((CIS)-4-phenylcyclohexyl)oxy)methyl)pyrrolidin-3-yl)methanesulfonamide] | – | 100.5%
13 | Cc1ncccc1N1CC[C@H](NS(C)(=O)=O)[C@@H]1CO[C@H]1CC[C@@H](c2ccccc2)CC1 [Example 82, N-((2R,3S)-1-(2-methylpyridin-3-yl)-2-((((CIS)-4-phenylcyclohexyl)oxy)methyl)pyrrolidin-3-yl)methanesulfonamide] | 3360 nM | 92.4%

The next lines start with the values.

Row | EC50 | % max agonist effect (Emax) | SMILES
14 | 2 nM | 100.5% | CS(=O)(=O)N[C@H]1CCN(c2ncc(F)c(O)c2F)[C@H]1CO[C@H]1CC[C@@H](c2ccccc2)CC1 [Example 101, N-((2R,3S)-1-(3,5-difluoro-4-hydroxypyridin-2-yl)-2-((((CIS)-4-phenylcyclohexyl)oxy)methyl)pyrrolidin-3-yl)methanesulfonamide]
15 | 6.1 nM | 101.7% | CS(=O)(=O)N[C@H]1CCN(c2nccc(O)c2F)[C@H]1COC1CCC(c2ccccc2C(F)(F)F)CC1 (stereo partly drawn) [Example 160, N-((2R,3S)-1-(3-fluoro-4-hydroxypyridin-2-yl)-2-(((4-(2-(trifluoromethyl)phenyl)cyclohexyl)-oxy)methyl)pyrrolidin-3-yl)methanesulfonamide]
16 | 0.25 nM | 100.2% | C[C@@H]1C[C@H](NS(=O)(=O)N(C)C)[C@H](CO[C@H]2CC[C@@H](c3cccc(F)c3)CC2)N1c1cc(O)ccn1 [Example 157, N′-((2R,3S,5R)-2-((((CIS)-4-(3-fluorophenyl)cyclohexyl)oxy)methyl)-1-(4-hydroxypyridin-2-yl)-5-methylpyrrolidin-3-yl)-N,N-dimethyl-sulfamide]
17 | 20.4 nM | 101.0% | CS(=O)(=O)N[C@H]1CCN(c2cccnc2)[C@H]1CO[C@H]1CC[C@@H](c2ccccc2)CC1 [Example 20, N-((2R,3S)-2-((((CIS)-4-phenylcyclohexyl)oxy)methyl)-1-(pyridin-3-yl)pyrrolidin-3-yl)methanesulfonamide]
18 | 0.45 nM | 101.9% | COC[C@@H]1C[C@H](NS(=O)(=O)N(C)C)[C@H](CO[C@H]2CC[C@@H](c3cccc(F)c3)CC2)N1c1cc(O)c(F)cn1 [Example 93, N′-((2R,3S,5S)-1-(5-fluoro-4-hydroxypyridin-2-yl)-2-((((CIS)-4-(3-fluorophenyl)cyclohexyl)oxy)methyl)-5-(methoxymethyl)pyrrolidin-3-yl)-N,N-dimethyl-sulfamide]
19 | 1.1 nM | 102.4% | CS(=O)(=O)N[C@H]1CCN(c2cc(O)c(Cl)cn2)[C@H]1CO[C@H]1CC[C@@H](c2ccccc2)CC1 [Example 113, N-((2R,3S)-1-(5-chloro-4-hydroxypyridin-2-yl)-2-((((CIS)-4-phenylcyclohexyl)oxy)methyl)pyrrolidin-3-yl)methanesulfonamide]
